From PMC4076210, “Discovery of Novel AKT Inhibitors with Enhanced Anti-Tumor Effects in Combination with the MEK Inhibitor” (PLoS ONE, 2014)

How the values were obtained:
FGFR1(h) = target: T1, FGFR1(h) (Homo sapiens, UniProt P11362); experiment: Kinase panel; format: biochemical
T1 construct: purchased Millipore KinaseProfiler

PAK3(h) = target: T2, PAK3(h) (Homo sapiens, UniProt O75914); experiment: Kinase panel; format: biochemical
T2 construct: purchased Millipore KinaseProfiler

WNK3(h) = target: T3, WNK3(h) (Homo sapiens, UniProt Q9BYP7); experiment: Kinase panel; format: biochemical
T3 construct: purchased Millipore KinaseProfiler

JNK3(h) = target: T4, JNK3(h) (Homo sapiens, UniProt P53779); experiment: Kinase panel; format: biochemical
T4 construct: purchased Millipore KinaseProfiler

[1] = test system: hematological tumor cell lines; experiment: 3-day proliferation assay (CellTiter-Glo); format: cell-based, human; settings: for IC50: Homo sapiens
Method: Various tumor cell lines were obtained from different sources including; the American Type Cell Culture Collection, the Developmental Therapeutics Program, the National Cancer Institute, the German Resource Center for Biological Material and the European Collection of Animal Cell Cultures. Cell lines were typically grown in […] containing 10% FBS. Some cell lines were grown in media specified by the vendor. A 3-day proliferation assay using CellTiter-Glo (CTG, Promega) was performed to measure the growth inhibition by the compounds at 0–30 µM. Cell growth was determined relative to untreated (DMSO) controls. EC50's were calculated from inhibition curves using a 4- or 6-parameter fitting algorithm in the Assay Client application.

T2 sequence (O75914 whole entry): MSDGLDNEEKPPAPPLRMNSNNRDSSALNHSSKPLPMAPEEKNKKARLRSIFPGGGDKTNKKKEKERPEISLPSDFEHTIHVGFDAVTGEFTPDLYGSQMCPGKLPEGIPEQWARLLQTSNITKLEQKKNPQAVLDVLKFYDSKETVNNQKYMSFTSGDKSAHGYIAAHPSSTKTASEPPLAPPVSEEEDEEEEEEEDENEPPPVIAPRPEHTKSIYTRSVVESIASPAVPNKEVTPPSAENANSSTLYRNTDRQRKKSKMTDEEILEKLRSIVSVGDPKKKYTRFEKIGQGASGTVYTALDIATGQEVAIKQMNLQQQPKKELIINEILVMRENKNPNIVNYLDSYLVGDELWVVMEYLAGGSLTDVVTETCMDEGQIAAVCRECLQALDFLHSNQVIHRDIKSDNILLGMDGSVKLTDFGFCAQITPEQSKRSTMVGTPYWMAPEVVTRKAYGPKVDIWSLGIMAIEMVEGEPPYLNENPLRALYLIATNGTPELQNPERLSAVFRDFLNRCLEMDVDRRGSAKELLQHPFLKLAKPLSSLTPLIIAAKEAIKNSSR
T3 sequence (Q9BYP7 whole entry): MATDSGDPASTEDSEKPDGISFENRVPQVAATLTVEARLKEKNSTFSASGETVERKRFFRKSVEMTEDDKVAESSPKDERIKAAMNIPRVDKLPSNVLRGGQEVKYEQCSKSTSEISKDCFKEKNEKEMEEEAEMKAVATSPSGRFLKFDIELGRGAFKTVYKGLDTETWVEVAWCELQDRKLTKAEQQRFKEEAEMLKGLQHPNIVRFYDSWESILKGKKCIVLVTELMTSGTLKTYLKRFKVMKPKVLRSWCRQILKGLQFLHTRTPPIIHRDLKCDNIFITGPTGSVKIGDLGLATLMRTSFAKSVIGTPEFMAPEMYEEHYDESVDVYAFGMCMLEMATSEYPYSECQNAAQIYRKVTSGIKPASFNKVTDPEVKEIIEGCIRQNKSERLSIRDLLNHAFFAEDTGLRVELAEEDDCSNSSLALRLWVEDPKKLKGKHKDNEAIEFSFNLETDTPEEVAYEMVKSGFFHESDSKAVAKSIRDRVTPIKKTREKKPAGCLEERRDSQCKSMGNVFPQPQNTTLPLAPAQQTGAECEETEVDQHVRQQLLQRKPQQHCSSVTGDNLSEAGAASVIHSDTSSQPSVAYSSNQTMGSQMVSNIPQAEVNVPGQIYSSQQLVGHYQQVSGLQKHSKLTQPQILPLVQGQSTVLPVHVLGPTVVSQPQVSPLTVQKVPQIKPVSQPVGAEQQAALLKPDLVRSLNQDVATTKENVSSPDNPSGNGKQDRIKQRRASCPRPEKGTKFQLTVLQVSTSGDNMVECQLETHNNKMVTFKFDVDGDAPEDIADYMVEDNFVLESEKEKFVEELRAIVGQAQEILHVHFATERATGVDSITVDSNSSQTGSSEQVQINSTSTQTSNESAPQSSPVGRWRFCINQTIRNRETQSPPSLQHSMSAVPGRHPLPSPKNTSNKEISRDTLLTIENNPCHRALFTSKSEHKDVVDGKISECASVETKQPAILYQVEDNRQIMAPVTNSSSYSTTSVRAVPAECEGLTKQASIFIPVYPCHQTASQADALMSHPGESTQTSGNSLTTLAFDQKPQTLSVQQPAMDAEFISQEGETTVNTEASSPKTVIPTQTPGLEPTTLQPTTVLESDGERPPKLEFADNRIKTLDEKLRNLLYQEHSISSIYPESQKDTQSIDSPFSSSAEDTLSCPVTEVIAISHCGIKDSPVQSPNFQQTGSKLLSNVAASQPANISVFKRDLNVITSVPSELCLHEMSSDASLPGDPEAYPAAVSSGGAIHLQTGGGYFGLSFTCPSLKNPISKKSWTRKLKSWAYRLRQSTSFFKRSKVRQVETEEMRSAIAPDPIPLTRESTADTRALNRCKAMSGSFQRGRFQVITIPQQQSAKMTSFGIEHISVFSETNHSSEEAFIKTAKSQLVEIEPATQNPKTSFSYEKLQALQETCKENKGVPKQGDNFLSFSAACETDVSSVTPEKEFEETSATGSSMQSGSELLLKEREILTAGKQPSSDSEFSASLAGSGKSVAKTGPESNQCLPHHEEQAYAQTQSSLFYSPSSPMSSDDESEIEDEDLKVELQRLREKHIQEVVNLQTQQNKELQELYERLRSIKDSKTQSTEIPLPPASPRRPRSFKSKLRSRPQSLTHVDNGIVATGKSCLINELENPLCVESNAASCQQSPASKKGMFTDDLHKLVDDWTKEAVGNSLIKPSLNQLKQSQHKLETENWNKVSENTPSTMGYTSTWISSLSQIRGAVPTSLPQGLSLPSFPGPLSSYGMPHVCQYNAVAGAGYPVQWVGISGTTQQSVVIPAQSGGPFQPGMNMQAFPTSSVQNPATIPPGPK
T1 sequence (P11362 22-822): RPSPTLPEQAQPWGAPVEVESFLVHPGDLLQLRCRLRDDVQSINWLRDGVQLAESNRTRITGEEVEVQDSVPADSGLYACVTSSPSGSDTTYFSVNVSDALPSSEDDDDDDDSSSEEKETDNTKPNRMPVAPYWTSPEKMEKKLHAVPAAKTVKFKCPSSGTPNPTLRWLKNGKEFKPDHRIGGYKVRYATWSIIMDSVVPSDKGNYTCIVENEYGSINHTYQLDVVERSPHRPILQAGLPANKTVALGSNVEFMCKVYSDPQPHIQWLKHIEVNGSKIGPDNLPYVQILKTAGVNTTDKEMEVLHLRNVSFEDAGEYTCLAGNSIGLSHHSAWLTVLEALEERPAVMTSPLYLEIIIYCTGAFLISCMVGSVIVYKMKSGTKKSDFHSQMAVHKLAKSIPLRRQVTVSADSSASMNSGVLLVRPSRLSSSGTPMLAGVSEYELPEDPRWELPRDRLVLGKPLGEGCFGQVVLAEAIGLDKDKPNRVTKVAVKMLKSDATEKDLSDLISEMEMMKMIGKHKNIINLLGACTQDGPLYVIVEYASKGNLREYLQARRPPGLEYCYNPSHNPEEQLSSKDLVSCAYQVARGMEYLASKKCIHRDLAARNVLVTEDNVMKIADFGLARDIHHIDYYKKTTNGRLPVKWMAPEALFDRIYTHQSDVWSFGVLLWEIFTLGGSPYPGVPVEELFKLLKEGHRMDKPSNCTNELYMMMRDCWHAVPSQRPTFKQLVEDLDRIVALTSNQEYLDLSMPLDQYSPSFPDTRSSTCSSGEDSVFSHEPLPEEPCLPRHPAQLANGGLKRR
T4 sequence (P53779 whole entry): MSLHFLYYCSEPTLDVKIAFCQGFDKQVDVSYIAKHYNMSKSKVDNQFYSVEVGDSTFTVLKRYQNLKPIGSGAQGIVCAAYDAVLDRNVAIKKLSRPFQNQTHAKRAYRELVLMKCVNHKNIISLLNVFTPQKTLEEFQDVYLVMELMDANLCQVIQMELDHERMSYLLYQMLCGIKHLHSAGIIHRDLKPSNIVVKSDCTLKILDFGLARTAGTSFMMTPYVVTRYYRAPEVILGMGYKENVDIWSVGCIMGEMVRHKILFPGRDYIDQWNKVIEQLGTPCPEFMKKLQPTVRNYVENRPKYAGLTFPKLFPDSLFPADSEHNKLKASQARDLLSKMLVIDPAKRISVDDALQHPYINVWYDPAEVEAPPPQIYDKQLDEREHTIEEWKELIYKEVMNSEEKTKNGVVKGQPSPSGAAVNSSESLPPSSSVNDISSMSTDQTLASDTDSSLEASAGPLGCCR

**Q.** With `Cn1ncc(Cl)c1-c1cc(C(=O)N[C@H](CN)Cc2cccc(F)c2)sc1Cl` [GSK2110183] as the molecule, how does the inhibition at 0.5 µM (FGFR1(h)) read?
**A.** -8%

**Q.** What about the inhibition at 10 µM (FGFR1(h)) of the same molecule?
**A.** -5%

**Q.** What about the inhibition at 0.5 µM (PAK3(h)) of the same molecule?
**A.** -2%

**Q.** And the inhibition at 10 µM (PAK3(h))?
**A.** 62%

**Q.** And the inhibition at 0.5 µM (WNK3(h))?
**A.** 0%

**Q.** What about the inhibition at 10 µM (WNK3(h)) of the same molecule?
**A.** 16%

**Q.** What about the inhibition at 0.5 µM (JNK3(h)) of the same molecule?
**A.** -5%

**Q.** What about the inhibition at 10 µM (JNK3(h)) of the same molecule?
**A.** 6%

**Q.** And the “hematological cell lines sensitive (EC50<1 µM)” value ([1]; 112 cell lines, 3 days, CTG)?
**A.** 65%

**Q.** What about the IC50 ([1]; 1A2, 1A2 cell line, Burkitt's Lymphoma, B Cell) of the same molecule?
**A.** 104 nM

**Q.** And the IC50 ([1]; 697 cell line, ALL, pre-B Cell)?
**A.** 737 nM

**Q.** And the IC50 ([1]; ARH-77, ARH77 cell line, Multiple Myeloma, B Cell)?
**A.** 313 nM

**Q.** And the IC50 ([1]; B-cell, BDCM cell line, AML, B Cell)?
**A.** 26 nM

**Q.** What about the IC50 ([1]; B-cell, CESS cell line, AML, B Cell) of the same molecule?
**A.** 475 nM

**Q.** And the IC50 ([1]; B-cell, HKB-11 cell line, Burkitt's Lymphoma, B Cell)?
**A.** 167 nM

**Q.** And the IC50 ([1]; B-cell, HS-Sultan cell line, Burkitt's Lymphoma, B Cell)?
**A.** 649 nM

**Q.** What about the IC50 ([1]; B-cell, KARPAS-231 cell line, ALL, B Cell) of the same molecule?
**A.** 119 nM

**Q.** And the IC50 ([1]; B-cell, MN60 cell line, ALL, B Cell)?
**A.** 1930 nM

**Q.** And the IC50 ([1]; B-cell, Namalwa cell line, Burkitt's Lymphoma, B Cell)?
**A.** 908 nM

**Q.** And the IC50 ([1]; B-cell, SD-1 cell line, ALL, B Cell)?
**A.** 10 nM

**Q.** And the IC50 ([1]; B-cell, Tanoue cell line, ALL, B Cell)?
**A.** 1040 nM

**Q.** What about the IC50 ([1]; BC1, BC1 cell line, Burkitt's Lymphoma, B Cell) of the same molecule?
**A.** 2100 nM

**Q.** What about the IC50 ([1]; BC-3, BC3 cell line, Burkitt's Lymphoma, B Cell) of the same molecule?
**A.** 16300 nM

**Q.** And the IC50 ([1]; BV-173, BV173 cell line, CML, pre-B Cell)?
**A.** 1210 nM

**Q.** What about the IC50 ([1]; CA46, CA46 cell line, Burkitt's Lymphoma, B Cell) of the same molecule?
**A.** 2320 nM

**Q.** And the IC50 ([1]; CCRF-CEM, CCRFCEM cell line, ALL, T Cell)?
**A.** 369 nM

**Q.** What about the IC50 ([1]; CCRF-SB, CCRFSB cell line, ALL, B Cell) of the same molecule?
**A.** 56 nM

**Q.** And the IC50 ([1]; CEM/C1, CEM/C1 cell line, ALL, T Cell)?
**A.** 109 nM

**Q.** And the IC50 ([1]; CEM/C2, CEM/C2 cell line, ALL, T Cell)?
**A.** 48 nM

**Q.** And the IC50 ([1]; CML-T1, CML-T1 cell line, CML, T Cell)?
**A.** 5080 nM

**Q.** And the IC50 ([1]; CRO-AP5, CRO-AP5 cell line, Primary Effusion Lymphoma (PEL), B Cell)?
**A.** 67 nM

**Q.** What about the IC50 ([1]; DB, DB cell line, Non-Hodgkin's Lymphoma, B Cell) of the same molecule?
**A.** 6320 nM

**Q.** What about the IC50 ([1]; DG-75, DG75 cell line, Burkitt's Lymphoma, B Cell) of the same molecule?
**A.** 14900 nM

**Q.** And the IC50 ([1]; DOHH-2, DOHH-2 cell line, Non-Hodgkin's Lymphoma, B Cell)?
**A.** 38 nM

**Q.** What about the IC50 ([1]; Daudi, DAUDI cell line, Burkitt's Lymphoma, B Cell) of the same molecule?
**A.** 441 nM

**Q.** And the IC50 ([1]; EB1, EB1 cell line, Burkitt's Lymphoma, B Cell)?
**A.** 110 nM

**Q.** What about the IC50 ([1]; EB2, EB2 cell line, Burkitt's Lymphoma, B Cell) of the same molecule?
**A.** 631 nM

**Q.** What about the IC50 ([1]; EB-3, EB3 cell line, Burkitt's Lymphoma, B Cell) of the same molecule?
**A.** 2970 nM

**Q.** What about the IC50 ([1]; EM-2, EM2 cell line, CML, Unspecified) of the same molecule?
**A.** 1220 nM

**Q.** What about the IC50 ([1]; GA-10, GA-10 cell line, Burkitt's Lymphoma, B Cell) of the same molecule?
**A.** 237 nM

**Q.** And the IC50 ([1]; GDM-1, GDM-1 cell line, AML, Monoblast)?
**A.** 2820 nM

**Q.** What about the IC50 ([1]; HD-MY-Z cell line, Hodgkin's Lymphoma, Unspecified) of the same molecule?
**A.** 9120 nM

**Q.** What about the IC50 ([1]; HEL 92.1.7, HEL92.1.7 cell line, AML, Erythroleukemia) of the same molecule?
**A.** 14100 nM

**Q.** What about the IC50 ([1]; HH, HH cell line, Non-Hodgkin's Lymphoma (CTCL), T Cell) of the same molecule?
**A.** 301 nM

**Q.** What about the IC50 ([1]; HL-60, HL-60 cell line, AML, Myeloblast) of the same molecule?
**A.** 2580 nM

**Q.** And the IC50 ([1]; HSB2, HSB2 cell line, ALL, T Cell)?
**A.** 5350 nM

**Q.** And the IC50 ([1]; HT, HT cell line, Burkitt's Lymphoma, B Cell)?
**A.** 206 nM

**Q.** And the IC50 ([1]; HuT78, HuT78 cell line, Non-Hodgkin's Lymphoma (CTCL), T Cell)?
**A.** 544 nM

**Q.** And the IC50 ([1]; J.gamma1, J.Gamma-1 cell line, ALL, T Cell)?
**A.** 57 nM

**Q.** And the IC50 ([1]; JIYOYE, JIYOYE cell line, Burkitt's Lymphoma, B Cell)?
**A.** 1850 nM

**Q.** And the IC50 ([1]; JM1, JM1 cell line, Burkitt's Lymphoma, pre-B Cell)?
**A.** 759 nM

**Q.** What about the IC50 ([1]; Jurkat, Jurkat cell line, ALL, T Cell) of the same molecule?
**A.** 28 nM

**Q.** And the IC50 ([1]; K562, K562 cell line, CML, Lymphoblast)?
**A.** 4450 nM

**Q.** What about the IC50 ([1]; KG-1, KG-1 cell line, AML, B Cell) of the same molecule?
**A.** 61 nM

**Q.** And the IC50 ([1]; KU812, Ku812 cell line, CML, Basophilic Leukocyte)?
**A.** 187 nM
